The values that follow come from US9975853B2, “Tetrahydroisoquinolinone derivatives and their use in the inhibition of the HSP70 protein” (Julius-Maximilians-Universitaet Wuerzburg, priority 2014, dated 2018).

Experiment [1] has as its system caspases 9 and 3. In words: Apoptosis assay: cleavage and activation of caspases 9 and 3, PARP cleavage in INA-6 cells (Western blot). Format: cell-based, human. To be noted: INA-6, 0.6 μM, 24 hours. Here is the method: Apoptosis Assays. Hsp70-dependent prevention of apoptosis was investigated by analyses of the apoptosis-inducing factors (AIF) and of the caspases 9 and 3 in INA-6 cells. INA-6 cells were treated with 0.6 μM of compound trans-7b for 8 hours prior to analyze nuclear translocation of AIF. Staining of the nuclear protein lamin A was used as a loading control. […] Analysis of cleavage of the bona fide caspase substrate PARP served as a control for caspase activation. Co-treatment with the pan-caspase inhibitor Z-VAD-FMK (50 μM) was employed as another specificity control.
In FIG. 2A Western blot analyses of caspases 9 and 3, and the caspase substrate PARP (upper panel), and viability analyses (lower panel) of INA-6 MM cells upon treatment with trans-7b for 24 hours are shown. […] Lysates were cleared by centrifugation, measured by quantitative protein assay (Bio-Rad, München, Germany) and subjected to SDS gel electrophoresis. […] INA-6 cells were washed in PBS, incubated for 15 minutes in 100 ml binding buffer (10 mM HEPES/NaOH, pH 7.4, 140 mM NaCl, 2.5 mM CaCl2) containing 2.5 mL annexin V-FITC mix and 1 mg/ml PI and analyzed by flow cytometry (FACSCalibur/CELLQuest; Becton Dickinson, Heidelberg, Germany). […] Raw data of three independent experiments have been calculated to establish means, standard deviation and dose-effect curves of trans-7b.

The target of experiment [2] is T1, HSP72 (Homo sapiens, UniProt P0DMV8).
T1 construct: endogenous in cells; host or cells: INA-6 multiple myeloma cells
The experiment can be described thus: Western blot analysis of HSP72 expression in INA-6 cells. To be noted: INA-6, 0.6 μM, with Z-VAD-FMK 50 μM. Format: cell-based. Here is the method: Western Blot Analysis. Protein expression levels were determined with Western blotting procedures (M. Chatterjee, et al., Blood 2002, 100, 3311-3318). Following separation by SDS-PAGE, proteins were transferred onto nitrocellulose membranes (Schleicher & Schuell, Dassel, Germany) and stained with antibodies against Hsp72, Hsp73, Hsp90 (all from Enzo Life Science, Lörrach, Germany), AIF, lamin A, caspases 9 and 3, PARP (all from Santa Cruz, Heidelberg, Germany). An anti-α tubulin antibody (Sigma, Deisenhofen, Germany) was employed to assess equal loading. Secondary antibodies used were anti-rat (Enzo Life Science), anti-rabbit and anti-mouse (both from GE Healthcare, Little Chalfont, UK). […] The heat shock proteins HSP72 and HSP73 critically interact with HSP90 in order to mediate an essential chaperone function for a multitude of proteins including various signaling intermediates. According to an established HSP72/73-dependent client protein signature and its role for survival in MM, the proposed anti-HSP72/73 effect of trans-7b in the INA-6 multiple myeloma (MM) cell line model was evaluated. […] Lysates were cleared by centrifugation, measured by quantitative protein assay (Bio-Rad, München, Germany) and subjected to SDS gel electrophoresis. […]

“Also recorded” adds a separate entry of the source.

T1 sequence (P0DMV8 whole entry): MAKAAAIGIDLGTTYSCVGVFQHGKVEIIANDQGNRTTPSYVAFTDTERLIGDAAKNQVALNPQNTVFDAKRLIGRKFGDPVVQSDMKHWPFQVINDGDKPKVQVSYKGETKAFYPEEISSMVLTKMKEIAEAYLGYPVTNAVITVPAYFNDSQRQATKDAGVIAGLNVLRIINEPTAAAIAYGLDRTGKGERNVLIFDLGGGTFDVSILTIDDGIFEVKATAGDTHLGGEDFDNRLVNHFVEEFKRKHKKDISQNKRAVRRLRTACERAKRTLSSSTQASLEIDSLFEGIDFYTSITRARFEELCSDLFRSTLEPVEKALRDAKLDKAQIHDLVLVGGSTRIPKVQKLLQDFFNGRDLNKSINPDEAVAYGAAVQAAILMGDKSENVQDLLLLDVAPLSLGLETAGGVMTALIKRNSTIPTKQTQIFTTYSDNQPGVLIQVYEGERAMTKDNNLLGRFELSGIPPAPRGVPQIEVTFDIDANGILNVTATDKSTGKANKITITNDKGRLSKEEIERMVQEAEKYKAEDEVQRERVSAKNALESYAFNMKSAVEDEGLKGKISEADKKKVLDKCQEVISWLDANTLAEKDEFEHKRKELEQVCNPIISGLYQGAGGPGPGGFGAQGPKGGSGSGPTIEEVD

For the compound `COc1ccc(C2C(C(=O)Nc3cccc(C)n3)c3ccccc3C(=O)N2c2ccccc2)cc1` (stereo not drawn) [trans-7b, trans-3-(4-Methoxyphenyl)-N-(6-methylpyridin-2-yl)-1-oxo-2-phenyl-1,2,3,4-tetrahydroisoquinoline-4-carboxamide], in experiment [1], the “caspase 9 and 3 cleavage/activation (PARP cleavage)” value is “activation of the caspases 9 and 3; also recorded: sequential caspase 9 and 3 cleavage leading to their activation”. For the same compound, the “HSP72 constitutive expression level” value in experiment [2] is on record as “decreases; also recorded: reduced”.
